These results are taken from patent US10344025B2, “GLS1 inhibitors for treating disease” (Board of Regents, The University of Texas System, priority 2014, dated 2019).

The target of assay [1] is purified recombinant human GAC (GLS1) (Homo sapiens (Human), UniProt O94925). Briefly: GLS1 Enzymatic Activity Assay (dual-coupled enzymatic assay, resorufin/Amplex UltraRed readout).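 Further: glutamate from GAC coupled via glutamate oxidase and peroxidase to resorufin, read as fluorescence (ex 530, em 590 nm) kinetically or at 20 min, four-parameter logistic IC50 fit.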 Format: biochemical.
The test system of another assay is A549 cells. Description: Proliferation Assay (A549 viability, Cell Titer Fluor, 72 hours). In kind it is cell-based. Conditions: Homo sapiens, A549, 72 h. In short, it runs like this: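 A549 cells seeded at 1000 cells/well, rested 24 h, then exposed to compound in 0.5% DMSO for 72 h at 37 °C. Viability read by Cell Titer Fluor fluorescence; IC50 from four-parameter logistic fit.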

Chain of purified recombinant human GAC (GLS1) (O94925 other isoform, or with tags, fused parts or gaps): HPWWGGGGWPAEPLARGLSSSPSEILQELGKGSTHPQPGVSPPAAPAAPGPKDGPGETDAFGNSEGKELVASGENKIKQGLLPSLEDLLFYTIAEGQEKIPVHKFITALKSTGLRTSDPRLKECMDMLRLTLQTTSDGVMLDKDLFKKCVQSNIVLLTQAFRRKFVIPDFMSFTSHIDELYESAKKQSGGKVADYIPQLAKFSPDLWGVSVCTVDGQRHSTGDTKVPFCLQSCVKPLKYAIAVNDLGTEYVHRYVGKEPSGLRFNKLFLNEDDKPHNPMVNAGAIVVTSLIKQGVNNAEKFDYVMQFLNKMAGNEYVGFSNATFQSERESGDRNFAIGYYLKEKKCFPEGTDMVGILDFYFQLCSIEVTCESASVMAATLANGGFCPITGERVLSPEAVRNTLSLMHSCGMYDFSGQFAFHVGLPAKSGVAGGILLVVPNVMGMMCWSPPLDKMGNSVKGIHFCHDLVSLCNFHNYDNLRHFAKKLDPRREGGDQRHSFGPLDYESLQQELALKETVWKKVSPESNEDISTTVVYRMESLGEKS

As to `O=C(Cc1cccc(OC(F)(F)F)c1)Nc1nnc(CCC(F)Cn2cc(C(=O)NCC3COC3)nn2)s1` (centres unmarked) [Example 558, 1-[2-fluoro-4-(5-{2-[3-(trifluoromethoxy)phenyl]acetamido}-1,3,4-thiadiazol-2-yl)butyl]-N-(oxetan-3-ylmethyl)-1H-1,2,3-triazole-4-carboxamide], the IC50 – broadly, the concentration needed to halve the response being measured – in assay [1] was below 100 nM. The EC50 – broadly, the concentration that produces a half-maximal response – in the assay with A549 cells lay in the range of 500 to 5000 nM.

With `Cc1ccc(CNC(=O)c2cn(CC(F)CCc3nnc(NC(=O)Cc4cccc(OC(F)(F)F)c4)s3)nn2)cn1` (centres unmarked) [Example 559, 1-[2-fluoro-4-(5-{2-[3-(trifluoromethoxy)phenyl]acetamido}-1,3,4-thiadiazol-2-yl)butyl]-N-[(6-methylpyridin-3-yl)methyl]-1H-1,2,3-triazole-4-carboxamide], the IC50 in assay [1] is below 100 nM. Besides, the EC50 with A549 cells was 100 to 500 nM.

`CC(C)(CO)CNC(=O)c1cn(CCCCc2ccc(NC(=O)Cc3cccc(OC(F)(F)F)c3)nn2)nn1` [Example 560, N-(3-hydroxy-2,2-dimethylpropyl)-1-[4-(6-{2-[3-(trifluoromethoxy)phenyl]acetamido}pyridazin-3-yl)butyl]-1H-1,2,3-triazole-4-carboxamide]: the IC50 in assay [1] was below 100 nM. The compound further showed an EC50 in the assay with A549 cells of 100 to 500 nM.

Take `CNC(=O)c1cn(CC(F)CCc2nnc(C(=O)NCc3cccc(OC(F)(F)F)c3)s2)nn1` (centres unmarked) [Example 561, 5-{3-fluoro-4-[4-(methylcarbamoyl)-1H-1,2,3-triazol-1-yl]butyl}-N-{[3-(trifluoromethoxy)phenyl]methyl}-1,3,4-thiadiazole-2-carboxamide]: the IC50 in assay [1] is below 100 nM. In the assay with A549 cells, this compound registered an EC50 of 100 to 500 nM.

Consider `CNC(=O)c1cn(CC(F)CCc2nnc(C(=O)NCc3cc(OC(F)(F)F)ccc3F)s2)nn1` (centres unmarked) [Example 562, 5-{3-fluoro-4-[4-(methylcarbamoyl)-1H-1,2,3-triazol-1-yl]butyl}-N-{[2-fluoro-5-(trifluoromethoxy)phenyl]methyl}-1,3,4-thiadiazole-2-carboxamide], for which the IC50 in assay [1] is below 100 nM. Further, the EC50 with A549 cells fell in the range of 100 to 500 nM.

In the case of `CNC(=O)c1cn(CC(F)CCc2nnc(C(=O)NCc3ccccc3)s2)nn1` (centres unmarked) [Example 563, N-benzyl-5-{3-fluoro-4-[4-(methylcarbamoyl)-1H-1,2,3-triazol-1-yl]butyl}-1,3,4-thiadiazole-2-carboxamide], the IC50 in assay [1] fell in the range of 500 to 5000 nM. Further, in the assay with A549 cells, the EC50 was 500 to 5000 nM.

On to `CNC(=O)c1cn(CC(F)CCc2nnc(NC(=O)Cc3ncc(Cl)cc3F)s2)nn1` (centres unmarked) [Example 564, 1-(4-{5-[2-(5-chloro-3-fluoropyridin-2-yl)acetamido]-1,3,4-thiadiazol-2-yl}-2-fluorobutyl)-N-methyl-1H-1,2,3-triazole-4-carboxamide], for which the IC50 in assay [1] is below 100 nM. For the same compound, in the assay on A549 cells, the EC50 lay in the range of 500 to 5000 nM.

As for `CNC(=O)c1cn(CCCCc2ccc(NC(=O)Cc3cccc(N4CCCC4)c3)nn2)nn1` [Example 565, N-methyl-1-(4-(6-(2-(3-(pyrrolidin-1-yl)phenyl)acetamido)pyridazin-3-yl)butyl)-1H-1,2,3-triazole-4-carboxamide], the IC50 in assay [1] was below 100 nM. The EC50 in the assay on A549 cells is 100 to 500 nM.

For `CC(=O)Nc1nnc(CCC(F)Cn2cc(C(=O)NCc3cccc(OC(F)(F)F)c3)nn2)s1` (centres unmarked) [Example 566, 1-(4-(5-acetamido-1,3,4-thiadiazo1-2-yl)-2-fluorobutyl)-N-(3-(trifluoromethoxy)benzyl)-1H-1,2,3-triazole-4-carboxamide], the IC50 in assay [1] was below 100 nM. Further, the EC50 in the assay with A549 cells is 100 to 500 nM.

Consider `CC(=O)Nc1nnc(CCC(F)Cn2cc(C(=O)NCc3cc(C(F)(F)F)ccn3)nn2)s1` (centres unmarked) [Example 567, 1-(4-(5-acetamido-1,3,4-thiadiazol-2-yl)-2-fluorobutyl)-N-((4-(trifluoromethyl)pyridin-2-yl)methyl)-1H-1,2,3-triazole-4-carboxamide], for which the IC50 in assay [1] was below 100 nM. This compound also yielded an EC50 with A549 cells of 100 to 500 nM.

As for `O=C(NCc1cccc(OC(F)(F)F)c1)c1cn(CC(F)CCc2nnc(NC(=O)C3CC3)s2)nn1` (centres unmarked) [Example 568, 1-(4-(5-(cyclopropanecarboxamido)-1,3,4-thiadiazol-2-yl)-2-fluorobutyl)-N-(3-(trifluoromethoxy)benzyl)-1H-1,2,3-triazole-4-carboxamide], in assay [1], the IC50 is below 100 nM. Moreover, the EC50 in the assay with A549 cells is 100 to 500 nM.

Consider `CNC(=O)c1cn(CC(F)CCc2nnc(C(=O)NCc3ccccn3)s2)nn1` (centres unmarked) [Example 570, 5-(3-fluoro-4-(4-(methylcarbamoyl)-1H-1,2,3-triazol-1-yl)butyl)-N-(pyridin-2-ylmethyl)-1,3,4-thiadiazole-2-carboxamide], for which the IC50 in assay [1] lay in the range of 100 to 500 nM. Further, the EC50 in the assay with A549 cells lay in the range of 500 to 5000 nM.

Turning to `O=C(Cc1ccccn1)Nc1nnc(CCC(F)Cn2cc(C(=O)NCc3cncc(C(F)(F)F)c3)nn2)s1` (centres unmarked) [Example 571, 1-(2-fluoro-4-(5-(2-(pyridin-2-yl)acetamido)-1,3,4-thiadiazol-2-yl)butyl)-N-((5-(trifluoromethyl)pyridin-3-yl)methyl)-1H-1,2,3-triazole-4-carboxamide], in assay [1], the IC50 was below 100 nM. In the assay on A549 cells, the EC50 is below 100 nM.

In the case of `CNC(=O)c1nnc(CCCCc2ccc(NC(=O)Cc3cccc(OC(F)(F)F)c3)nn2)s1` [Example 572, N-methyl-5-(4-(6-(2-(3-(trifluoromethoxy)phenyl)acetamido)pyridazin-3-yl)butyl)-1,3,4-thiadiazole-2-carboxamide], the IC50 in assay [1] is below 100 nM. For the same compound, in the assay with A549 cells, the EC50 was 100 to 500 nM.

Turning to `O=C(Cc1nccs1)Nc1nnc(CCC(F)Cn2cc(C(=O)NCc3cc(OC(F)(F)F)ccc3F)nn2)s1` (centres unmarked) [Example 573, 1-(2-fluoro-4-(5-(2-(thiazol-2-yl)acetamido)-1,3,4-thiadiazol-2-yl)butyl)-N-(2-fluoro-5-(trifluoromethoxy)benzyl)-1H-1,2,3-triazole-4-carboxamide], the IC50 in assay [1] was below 100 nM. Further, the EC50 in the assay with A549 cells was below 100 nM.

For `O=C(NCc1cc(OC(F)(F)F)ccc1F)c1cn(CC(F)CCc2nnc(NC(=O)C3CCCCO3)s2)nn1` (centres unmarked) [Example 574, 1-(2-fluoro-4-(5-(tetrahydro-2H-pyran-2-carboxamido)-1,3,4-thiadiazol-2-yl)butyl)-N-(2-fluoro-5-(trifluoromethoxy)benzyl)-1H-1,2,3-triazole-4-carboxamide], the IC50 in assay [1] was below 100 nM. In the assay with A549 cells, this compound gave an EC50 below 100 nM.

Take `O=C(Cc1ccn[nH]1)Nc1nnc(CCC(F)Cn2cc(C(=O)NCc3cc(OC(F)(F)F)ccc3F)nn2)s1` (centres unmarked) [Example 575, 1-(4-(5-(2-(1H-pyrazol-5-yl)acetamido)-1,3,4-thiadiazol-2-yl)-2-fluorobutyl)-N-(2-fluoro-5-(trifluoromethoxy)benzyl)-1H-1,2,3-triazole-4-carboxamide]: the IC50 in assay [1] is below 100 nM. Besides, the EC50 in the assay on A549 cells was in the range of 100 to 500 nM.

`Cn1cnc(CC(=O)Nc2nnc(CCC(F)Cn3cc(C(=O)NCc4cc(OC(F)(F)F)ccc4F)nn3)s2)c1` (centres unmarked) [Example 576, 1-(2-fluoro-4-(5-(2-(1-methyl-1H-imidazol-4-yl)acetamido)-1,3,4-thiadiazol-2-yl)butyl)-N-(2-fluoro-5-(trifluoromethoxy)benzyl)-1H-1,2,3-triazole-4-carboxamide]: the IC50 in assay [1] was below 100 nM. Also, in the assay on A549 cells, the EC50 was below 100 nM.

Consider `O=C(Nc1nnc(CCC(F)Cn2cc(C(=O)NCc3cc(OC(F)(F)F)ccc3F)nn2)s1)c1cccnc1` (centres unmarked) [Example 577, N-(5-(3-fluoro-4-(4-((2-fluoro-5-(trifluoromethoxy)benzyl)carbamoyl)-1H-1,2,3-triazol-1-yl)butyl)-1,3,4-thiadiazol-2-yl)nicotinamide], for which, in assay [1], the IC50 is below 100 nM. In the assay on A549 cells, the EC50 is 500 to 5000 nM.

As for `CNC(=O)c1cn(CC(F)CCc2nnc(NC(=O)Cc3cccnc3)s2)nn1` (centres unmarked) [Example 578, 1-(2-fluoro-4-(5-(2-(pyridin-3-yl)acetamido)-1,3,4-thiadiazol-2-yl)butyl)-N-methyl-1H-1,2,3-triazole-4-carboxamide], the IC50 in assay [1] is below 100 nM. In addition, the EC50 with A549 cells was 500 to 5000 nM.

`CNC(=O)c1cn(CCCCc2ccc(NC(=O)Cc3cnccn3)nn2)nn1` [Example 579, N-methyl-1-(4-(6-(2-(pyrazin-2-yl)acetamido)pyridazin-3-yl)butyl)-1H-1,2,3-triazole-4-carboxamide]: the IC50 in assay [1] was in the range of 100 to 500 nM. This compound also had a concentration giving a half-maximal response (EC50) in the assay on A549 cells of 500 to 5000 nM.

In the case of `O=C(Cc1cc(C2CC2)ccn1)Nc1nnc(CCC(F)Cn2cc(C(=O)NCc3cncc(C(F)(F)F)c3)nn2)s1` (centres unmarked) [Example 580, 1-(4-(5-(2-(4-cyclopropylpyridin-2-yl)acetamido)-1,3,4-thiadiazol-2-yl)-2-fluorobutyl)-N-((5-(trifluoromethyl)pyridin-3-yl)methyl)-1H-1,2,3-triazole-4-carboxamide], the IC50 in assay [1] was below 100 nM. The EC50 with A549 cells is below 100 nM.

On to `O=C(Cc1cc(OC(F)(F)F)ccc1F)Nc1ccc(CCCCn2cc(C(=O)NC3COC3)nn2)nn1` [Example 581, 1-(4-(6-(2-(2-fluoro-5-(trifluoromethoxy)phenyl)acetamido)pyridazin-3-yl)butyl)-N-(oxetan-3-yl)-1H-1,2,3-triazole-4-carboxamide], for which, in assay [1], the IC50 was below 100 nM. The compound further registered an EC50 with A549 cells of 100 to 500 nM.

For `O=C(Cc1cc(OC(F)(F)F)ccc1F)Nc1ccc(CCCCn2cc(C(=O)NCC3CCO3)nn2)nn1` (centres unmarked) [Example 582, 1-(4-(6-(2-(2-fluoro-5-(trifluoromethoxy)phenyl)acetamido)pyridazin-3-yl)butyl)-N-(oxetan-2-ylmethyl)-1H-1,2,3-triazole-4-carboxamide], the IC50 in assay [1] was below 100 nM. The compound further gave an EC50 in the assay on A549 cells of 100 to 500 nM.

In the case of `O=C(Cc1cc(OC(F)(F)F)ccc1F)Nc1ccc(CCCCn2cc(C(=O)NC3CC3)nn2)nn1` [Example 583, N-cyclopropyl-1-(4-(6-(2-(2-fluoro-5-(trifluoromethoxy)phenyl)acetamido)pyridazin-3-yl)butyl)-1H-1,2,3-triazole-4-carboxamide], the IC50 in assay [1] is below 100 nM. In the assay on A549 cells, this compound displayed an EC50 below 100 nM.
